# Measured values: US6531148B1, “Therapeutic agents” (Takara Shuzo Co., Ltd., priority 1998, dated 2003)
# Where two headings read alike, the source gives them in different places.
# What was measured:
# [1] = system: 70-kDa heat shock protein; test: Heat shock protein induction test; format: cell-based; design: key to Induction of heat shock protein: − means that no induction was observed; + represents the induction level. Increased number of + means increased induction; + +: + represents the induction level. Increased number of + means increased induction; + + +: + represents the induction level. Increased number of + means increased induction; + + + +: + represents the induction level. Increased number of + means increased induction; conditions: HL-60 cells; for activity of inducing heat shock protein: 70-kDa heat shock protein; for Induction of heat shock protein: 6 hours
# Procedure: 5 ml of RPMI 1640 medium containing 10% fetal bovine serum and HL-60 cells at a concentration of 2×10^5 cells/ml was placed in each well of a 6-well plate. The plate was incubated at 37° C. for 24 hours in the presence of 5% CO2. DGE at a final concentration of 0, 6.25, 12.5, 25, 50 or 100 μM was then added thereto. The incubation was continued for additional 6 hours.
# After cultivation, the cell number was counted.
# The cells were harvested by centrifugation, washed with PBS to prepare DGE-treated cells. Cells that were cultured in the same manner after heated at 45° C. for 10 minutes were also prepared.
# These treated cells were used for SDS-PAGE according to the method as described in Molecular Cloning [Cold Spring Harbor Laboratory Press (1989)]. The treated cells were suspended in SDS-PAGE Sample buffer at a concentration of 2.5×10^6 cells/ml. The cell suspensions were treated at 100° C. for 10 minutes. 5 μl each of the cell suspensions was applied to two SDS-PAGE gels (5% stacking gel, 10% separation gel) and electrophoresed. One of the gels was subjected to Coomassie staining. The other gel was blotted onto a polyvinylidene difluoride transfer membrane [Immobilon™, Millipore, Cat. # IPVH000-10]. The membrane was blocked at 4° C. overnight using Block Ace (Dainippon Pharmaceutical, Cat. # UK-B25).
# The blocked membrane was reacted with a monoclonal antibody HSP72/73(Ab-1) (Oncogene Research Products, Cat. # HSP01), which specifically reacts with heat-inducible 70-kDa heat shock protein. The membrane was washed with TBS containing 0.05% Tween 20 followed by TBS. The membrane was then reacted with a peroxidase-conjugated secondary antibody HRT-rabbit anti-mouse IgG (H+L) (Zymed Laboratories, Inc., Cat. # 61-6520), and then washed as described above. The membrane reacted with the primary and secondary antibodies was reacted with a chemiluminol reagent, Renaissance™ (Dupont NEN, Cat. # NEL-100). The membrane was then exposed to an X-ray film to confirm the induction of 70-kDa heat shock protein.
# DSEK cells = test: Antirheumatic activity test (DSEK cell growth, WST-1); format: cell-based, human; conditions: for antirheumatic activity (growth inhibition of rheumatoid cells) / IC50: DSEK cells; for IC50: Homo sapiens, read-out: concentration that results in the inhibition of the growth of half-cells (IC50)
# Procedure: DSEK cell is a fibroblast cell line established from a synovial membrane of a human patient with chronic rheumatism and is held at Department of Second Internal Medicine, Integrated Medical Center, Saitama Collage of Medicine as an in vitro rheumatoid model. DSEK cells were cultured in Iscov-MEM medium (IMDM: Gibco-BRL) containing 10% FBS (Bio Whittaker) at 37° C. in the presence of 5% CO2 to confluence. The cells were suspended in the same medium at a concentration of 3×10^4 cells/ml using a trypsin-EDTA solution (Bio Whittaker). 200 μl of the suspension was dispensed into each well of a 96-well microtiter plate (Falcon). After culturing for 5 to 7 days at which time the cells grew to 80% confluence, the medium was changed to 200 μl of the above-mentioned medium containing DGE at a 25, 50, 75, 100, 200 or 400 μM.
# After incubating for 24 or 72 hours, 10 μl of Premix WST-1 (Takara Shuzo, MK400) was added to the well. The mixture was reacted at 37° C. for 3.5 hours. The degree of cell growth was expressed by a value obtained by subtracting the absorbance at 650 nm (A650) from the absorbance at 450 nm (A450).
# Bacteria 1 to 5 = test: Antimicrobial activity test (overall statement); format: cell-based
# Procedure: The antimicrobial activities of DGE against Escherichia coli W3110 (Bacterium 1), Salmonella typhimurium LT2 (Bacterium 2), Bacillus subtilis IFO3021 (Bacterium 3), Pseudomonas aeruginosa IFO3080 (Bacterium 4) and Streptococcus mutans GS5 (Bacterium 5) were examined as follows.
# The Bacteria 1 to 4 were cultured overnight in L-broth. The cultures were diluted to a concentration of about 2×10^5 cells/180 μl with Sensitive Bouillon medium (Nissui) base on the turbidity. The Bacterium 5 was cultured overnight in Brain Heart Infusion medium. The culture was diluted to a concentration of about 2×10^5 cells/180 μl with Brain Heart Infusion medium based on the turbidity. 180 μl of each bacterial dilution was placed in each well of a 96-well microtiter plate. On the other hand, the respective bacterial dilutions were further diluted and spread onto plates of L-broth or Brain Heart Infusion medium. The plates were incubated at 37° C. overnight. The resulting colonies were counted to determine the stating viable cell numbers.
# A 14.4 mg/ml DGE solution was diluted every 2-folds to prepare serial dilutions. 20 μl each of the dilutions was placed in the well in which the bacterial dilution had been placed. The cells were cultured at 37° C. for 24 hours without shaking. After cultivation, the turbidity of each culture was measured.
# Furthermore, the culture from the well for which the growth of bacterial cells was not observed was spread onto plates. After the plates were incubated at 37° C. overnight, the colony number was counted to determine the viable cell number. […] The minimal growth-inhibitory concentrations and the minimal bacteriocidal concentrations of DGE for the Bacteria 1 to 5 were determined as shown in Table 2.
# [2] = system: α-glucosidase from rat small intestine mucous membrane; test: α-Glucosidase inhibition test (crude enzyme from rat small intestine); format: biochemical; conditions: for relative activity: control without DGE = 100%
# Procedure: (2) A crude enzyme preparation of α-glucosidase from rat small intestine mucous membrane [prepared according to the method as described in Arne Dahlqvist, Anal. Biochem., 7:18-25 (1964)] was used to measure the activity of inhibiting α-glucosidase of DGE as follows.
# For the enzymatic reaction, 80 μl of a solution of sucrose, maltose, treharose or soluble starch as a substrate in 10 mM phosphate buffer (pH 7.0) buffer at a final concentration of 100 mM (0.5% for soluble starch) was added to 10 μl of a test sample solution appropriately diluted with the same buffer. 10 μl of the crude enzyme solution prepared from rat small intestine was added thereto. The mixture was reacted at 37° C. for 20 minutes.
# The enzymatic reaction was assessed by adding 3 ml of a reagent for glucose measurement (Wako Pure Chemical Industries) to the reaction mixture, reacting at 37° C. for 5 minutes and then measuring the absorbance at 505 nm as the glucose content in the mixture.
# The inhibitory activity of DGE on the digestion of each substrate by α-glycosidase was measured using DGE at four different concentrations according to the above-mentioned method. The activity of inhibiting α-glycosidase was expressed as a relative activity (%) defining the activity of the control without DGE as 100%.
compound,measurement,setting,value
"5-L-glutathion-S-yl-2-hydroxy-3,7-dioxabicyclo[2.2.2]octan-1-ol [DGE-GSH]",activity of inducing heat shock protein,[1],also exhibited similar activities of inducing heat shock protein
same,antirheumatic activity (growth inhibition of rheumatoid cells),DSEK cells,also exhibited similar activities
same,antimicrobial activity,Bacteria 1 to 5,also exhibited similar activities
same,activities of inhibiting α-glycosidase,[2],also exhibited similar activities of inhibiting α-glycosidase
"O=C1C=CC(CO)OC1O [DGE, L-glycero-1,5-epoxy-1αβ,6-dihydroxy-cis-hex-3-en-2-one]",activity of inducing heat shock protein,[1],the induction of 70-kDa heat shock protein by DGE was observed
same,Induction of heat shock protein,[1]; 6.25 μM DGE,+
same,Induction of heat shock protein,[1]; 12.5 μM DGE,+
same,Induction of heat shock protein,[1]; 25.0 μM DGE,+ +
same,Induction of heat shock protein,[1]; 50.0 μM DGE,+ + +
same,Induction of heat shock protein,[1]; 100 μM DGE,+ + + +
same,Degree of cell growth (A450-650),"DSEK cells; DGE 25 μM, culture period 24 hours, 0 μM 3.98",3.86
same,Degree of cell growth (A450-650),"DSEK cells; DGE 25 μM, culture period 72 hours, 0 μM 3.94",3.33
same,Degree of cell growth (A450-650),"DSEK cells; DGE 50 μM, culture period 24 hours, 0 μM 3.98",3.24
same,Degree of cell growth (A450-650),"DSEK cells; DGE 50 μM, culture period 72 hours, 0 μM 3.94",3.25
same,Degree of cell growth (A450-650),"DSEK cells; DGE 100 μM, culture period 24 hours, 0 μM 3.98",2.88
same,Degree of cell growth (A450-650),"DSEK cells; DGE 100 μM, culture period 72 hours, 0 μM 3.94",2.05
same,Degree of cell growth (A450-650),"DSEK cells; DGE 200 μM, culture period 24 hours, 0 μM 3.98",1.26
same,Degree of cell growth (A450-650),"DSEK cells; DGE 200 μM, culture period 72 hours, 0 μM 3.94",0.48
same,Degree of cell growth (A450-650),"DSEK cells; DGE 400 μM, culture period 24 hours, 0 μM 3.98",0.71
same,Degree of cell growth (A450-650),"DSEK cells; DGE 400 μM, culture period 72 hours, 0 μM 3.94",0.35
same,antirheumatic activity (growth inhibition of rheumatoid cells),DSEK cells,the growth of the rheumatoid cells was strongly inhibited
same,IC50,DSEK cells; at 24 hours,207 µM
same,IC50,DSEK cells; at 72 hours,112 µM
same,antimicrobial activity,Bacteria 1 to 5,exhibited an antimicrobial activity
same,relative activity,"[2]; substrate Maltose, DGE 0.2 mM",96%
same,relative activity,"[2]; substrate Maltose, DGE 0.5 mM",97%
same,relative activity,"[2]; substrate Maltose, DGE 1.0 mM",100%
same,relative activity,"[2]; substrate Maltose, DGE 2.0 mM",96%
same,relative activity,"[2]; substrate Soluble starch, DGE 0.2 mM",100%
same,relative activity,"[2]; substrate Soluble starch, DGE 0.5 mM",95%
same,relative activity,"[2]; substrate Soluble starch, DGE 1.0 mM",91%
same,relative activity,"[2]; substrate Soluble starch, DGE 2.0 mM",92%
same,relative activity,"[2]; substrate Treharose, DGE 0.2 mM",98%
same,relative activity,"[2]; substrate Treharose, DGE 0.5 mM",96%
same,relative activity,"[2]; substrate Treharose, DGE 1.0 mM",99%
same,relative activity,"[2]; substrate Treharose, DGE 2.0 mM",100%
"O=C1C=CC(CO)OC1O [κ-DGE, D-glycero-1,5-epoxy-1αβ,6-dihydroxy-cis-hex-3-en-2-one]",activity of inducing heat shock protein,[1],also exhibited similar activities of inducing heat shock protein
same,antirheumatic activity (growth inhibition of rheumatoid cells),DSEK cells,also exhibited similar activities
same,antimicrobial activity,Bacteria 1 to 5,also exhibited similar activities
same,activities of inhibiting α-glycosidase,[2],also exhibited similar activities of inhibiting α-glycosidase
